Laboratory results published in patent US11208412B2 (DAEGU-GYEONGBUK MEDICAL INNOVATION FOUNDATION, priority 2017, dated 2021).

Tests used:
Assay in all cases: Kinase selectivity, DiscoverX scanMAX Kinase assay panel (% control)
Assay type in all cases: binding
[1] = biological target: T1, kinases of the scanMAX Kinase assay panel (Homo sapiens, UniProt Q9P289); details: MST4; 1 uM
T1 construct: purchased DiscoverX Co. (contract measurement) scanMAX Kinase assay panel
Outline: (§1)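 Read-out is % control, normalised so a positive-control compound sits at 0% and DMSO at 100%: (test − positive)/(negative − positive)×100. Each kinase received the compound at 1 uM in DMSO. A value below 35% counts as activity.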

[2] = biological target: T2, kinases of the scanMAX Kinase assay panel (Homo sapiens, UniProt Q9UKE5); details: kinase TNIK; 1 uM in DMSO
T2 construct: purchased DiscoverX Co. (contract measurement) scanMAX Kinase assay panel
Outline: as §1

[3] = biological target: T3, kinases of the scanMAX Kinase assay panel (Homo sapiens, UniProt Q96PN8); details: kinase TSSK3; 1 uM in DMSO
T3 construct: purchased DiscoverX Co. (contract measurement) scanMAX Kinase assay panel
T3 sequence (Q96PN8 1-268): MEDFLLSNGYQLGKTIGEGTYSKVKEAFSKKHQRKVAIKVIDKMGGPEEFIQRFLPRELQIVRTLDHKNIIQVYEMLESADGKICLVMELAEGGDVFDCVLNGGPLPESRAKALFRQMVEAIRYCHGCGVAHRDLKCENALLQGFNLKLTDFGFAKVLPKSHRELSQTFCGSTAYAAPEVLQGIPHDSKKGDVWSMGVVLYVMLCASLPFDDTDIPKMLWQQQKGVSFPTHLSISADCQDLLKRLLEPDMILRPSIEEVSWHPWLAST
Outline: as §1

[4] = biological target: T4, kinases of the scanMAX Kinase assay panel (Homo sapiens, UniProt Q9NRH2); details: kinase SNRK; 1 uM in DMSO
T4 construct: purchased DiscoverX Co. (contract measurement) scanMAX Kinase assay panel
T4 sequence (Q9NRH2 1-765): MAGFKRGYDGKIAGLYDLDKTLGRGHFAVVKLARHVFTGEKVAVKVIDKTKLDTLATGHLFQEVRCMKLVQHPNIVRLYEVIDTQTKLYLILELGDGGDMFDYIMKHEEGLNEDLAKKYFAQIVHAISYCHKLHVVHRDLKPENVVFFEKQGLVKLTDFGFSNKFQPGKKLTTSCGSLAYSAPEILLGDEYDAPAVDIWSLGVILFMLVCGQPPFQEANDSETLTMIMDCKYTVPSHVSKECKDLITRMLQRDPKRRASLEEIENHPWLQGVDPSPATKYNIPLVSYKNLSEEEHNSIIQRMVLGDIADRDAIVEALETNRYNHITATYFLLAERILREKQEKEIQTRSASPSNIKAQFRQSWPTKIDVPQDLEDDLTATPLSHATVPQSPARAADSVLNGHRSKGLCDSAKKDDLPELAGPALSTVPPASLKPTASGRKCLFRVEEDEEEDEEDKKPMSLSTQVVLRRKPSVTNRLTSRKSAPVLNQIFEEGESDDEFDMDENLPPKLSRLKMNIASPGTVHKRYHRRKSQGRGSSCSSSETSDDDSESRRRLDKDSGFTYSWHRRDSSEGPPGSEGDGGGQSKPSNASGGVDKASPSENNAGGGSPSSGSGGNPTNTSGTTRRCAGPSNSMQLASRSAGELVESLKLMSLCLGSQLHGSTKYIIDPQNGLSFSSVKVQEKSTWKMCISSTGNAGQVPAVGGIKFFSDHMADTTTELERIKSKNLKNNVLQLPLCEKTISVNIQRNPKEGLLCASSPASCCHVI
Outline: as §1

[5] = biological target: T5, kinases of the scanMAX Kinase assay panel (Homo sapiens, UniProt Q9HBY8); details: kinase SGK2; 1 uM in DMSO
T5 construct: purchased DiscoverX Co. (contract measurement) scanMAX Kinase assay panel
T5 sequence (Q9HBY8 1-367): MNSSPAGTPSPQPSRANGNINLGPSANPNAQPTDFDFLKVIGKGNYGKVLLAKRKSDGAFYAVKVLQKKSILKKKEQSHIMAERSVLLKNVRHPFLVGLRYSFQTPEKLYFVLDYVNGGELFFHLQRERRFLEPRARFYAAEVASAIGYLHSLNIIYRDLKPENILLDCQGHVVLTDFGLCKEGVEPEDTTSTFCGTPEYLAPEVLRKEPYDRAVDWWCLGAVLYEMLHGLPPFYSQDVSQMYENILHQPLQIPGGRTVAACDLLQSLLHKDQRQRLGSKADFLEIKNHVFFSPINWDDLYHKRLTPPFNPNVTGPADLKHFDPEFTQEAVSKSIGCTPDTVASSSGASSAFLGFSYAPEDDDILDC
Outline: as §1

[6] = biological target: T6, kinases of the scanMAX Kinase assay panel (Homo sapiens, UniProt Q02763); details: kinase TIE2; 1 uM in DMSO
T6 construct: purchased DiscoverX Co. (contract measurement) scanMAX Kinase assay panel
Outline: as §1

[7] = biological target: T7, kinases of the scanMAX Kinase assay panel (Homo sapiens, UniProt Q32MK0); details: MLCK; 1 uM
T7 construct: purchased DiscoverX Co. (contract measurement) scanMAX Kinase assay panel
T7 sequence (Q32MK0 1-819): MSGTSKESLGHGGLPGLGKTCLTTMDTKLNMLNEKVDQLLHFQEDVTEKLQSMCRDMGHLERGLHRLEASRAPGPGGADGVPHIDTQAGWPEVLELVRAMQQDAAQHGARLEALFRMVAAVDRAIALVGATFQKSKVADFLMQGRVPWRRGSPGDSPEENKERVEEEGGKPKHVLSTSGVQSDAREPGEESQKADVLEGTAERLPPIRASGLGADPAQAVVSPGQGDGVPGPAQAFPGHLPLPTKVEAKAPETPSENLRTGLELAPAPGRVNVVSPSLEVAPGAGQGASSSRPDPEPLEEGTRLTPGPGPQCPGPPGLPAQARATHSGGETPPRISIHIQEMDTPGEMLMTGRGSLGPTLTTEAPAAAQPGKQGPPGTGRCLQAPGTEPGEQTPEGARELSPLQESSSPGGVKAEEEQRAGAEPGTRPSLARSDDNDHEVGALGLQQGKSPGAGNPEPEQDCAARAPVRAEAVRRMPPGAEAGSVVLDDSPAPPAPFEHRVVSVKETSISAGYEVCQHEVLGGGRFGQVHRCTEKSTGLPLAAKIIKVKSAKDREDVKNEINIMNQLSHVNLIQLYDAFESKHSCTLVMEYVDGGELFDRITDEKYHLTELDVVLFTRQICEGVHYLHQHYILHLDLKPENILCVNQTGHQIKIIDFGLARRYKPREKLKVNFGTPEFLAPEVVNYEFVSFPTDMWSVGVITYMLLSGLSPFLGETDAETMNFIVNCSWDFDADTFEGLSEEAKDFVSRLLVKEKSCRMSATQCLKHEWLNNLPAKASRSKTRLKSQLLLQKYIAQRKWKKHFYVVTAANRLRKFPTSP
Outline: as §1

T1 sequence (Q9P289 whole entry): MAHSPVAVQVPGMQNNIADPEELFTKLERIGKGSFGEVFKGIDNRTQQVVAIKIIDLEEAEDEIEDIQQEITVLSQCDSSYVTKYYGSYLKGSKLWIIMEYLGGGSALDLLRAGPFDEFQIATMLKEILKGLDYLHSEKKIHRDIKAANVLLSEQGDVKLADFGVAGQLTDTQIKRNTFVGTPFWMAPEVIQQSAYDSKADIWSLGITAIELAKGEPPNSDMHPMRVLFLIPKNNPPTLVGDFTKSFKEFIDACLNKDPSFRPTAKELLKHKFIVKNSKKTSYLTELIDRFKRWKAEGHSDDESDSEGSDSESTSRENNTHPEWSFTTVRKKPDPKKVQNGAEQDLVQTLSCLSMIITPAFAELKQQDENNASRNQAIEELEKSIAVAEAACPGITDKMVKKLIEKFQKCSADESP
T6 sequence (Q02763 23-1124): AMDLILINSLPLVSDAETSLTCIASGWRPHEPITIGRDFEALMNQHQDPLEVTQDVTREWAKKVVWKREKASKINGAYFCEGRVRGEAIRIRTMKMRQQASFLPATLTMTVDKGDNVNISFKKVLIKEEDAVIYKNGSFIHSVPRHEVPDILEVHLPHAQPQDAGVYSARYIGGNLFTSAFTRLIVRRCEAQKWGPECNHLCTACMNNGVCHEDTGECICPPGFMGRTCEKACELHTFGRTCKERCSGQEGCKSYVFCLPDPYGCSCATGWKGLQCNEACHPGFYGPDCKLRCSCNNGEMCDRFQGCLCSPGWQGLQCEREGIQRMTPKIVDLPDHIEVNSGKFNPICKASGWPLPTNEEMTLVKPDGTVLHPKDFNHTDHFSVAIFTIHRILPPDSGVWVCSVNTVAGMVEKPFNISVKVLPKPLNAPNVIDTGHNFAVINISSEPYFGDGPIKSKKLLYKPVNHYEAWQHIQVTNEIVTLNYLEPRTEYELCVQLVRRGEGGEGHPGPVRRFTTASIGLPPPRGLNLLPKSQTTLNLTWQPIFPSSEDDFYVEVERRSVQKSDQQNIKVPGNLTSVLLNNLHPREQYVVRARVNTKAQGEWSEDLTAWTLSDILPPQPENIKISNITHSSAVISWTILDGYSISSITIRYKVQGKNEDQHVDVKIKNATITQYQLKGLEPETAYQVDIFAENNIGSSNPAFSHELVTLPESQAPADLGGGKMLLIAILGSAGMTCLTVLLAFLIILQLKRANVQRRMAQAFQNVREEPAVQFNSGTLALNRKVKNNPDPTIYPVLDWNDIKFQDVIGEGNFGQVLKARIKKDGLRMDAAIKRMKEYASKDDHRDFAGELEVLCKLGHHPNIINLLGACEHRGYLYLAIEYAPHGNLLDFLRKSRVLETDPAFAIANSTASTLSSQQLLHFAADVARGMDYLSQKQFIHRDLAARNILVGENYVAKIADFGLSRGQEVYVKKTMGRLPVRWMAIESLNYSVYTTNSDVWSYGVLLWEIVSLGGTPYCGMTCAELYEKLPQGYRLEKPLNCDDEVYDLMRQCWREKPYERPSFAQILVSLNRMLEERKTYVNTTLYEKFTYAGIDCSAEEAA
T2 sequence (Q9UKE5 whole entry): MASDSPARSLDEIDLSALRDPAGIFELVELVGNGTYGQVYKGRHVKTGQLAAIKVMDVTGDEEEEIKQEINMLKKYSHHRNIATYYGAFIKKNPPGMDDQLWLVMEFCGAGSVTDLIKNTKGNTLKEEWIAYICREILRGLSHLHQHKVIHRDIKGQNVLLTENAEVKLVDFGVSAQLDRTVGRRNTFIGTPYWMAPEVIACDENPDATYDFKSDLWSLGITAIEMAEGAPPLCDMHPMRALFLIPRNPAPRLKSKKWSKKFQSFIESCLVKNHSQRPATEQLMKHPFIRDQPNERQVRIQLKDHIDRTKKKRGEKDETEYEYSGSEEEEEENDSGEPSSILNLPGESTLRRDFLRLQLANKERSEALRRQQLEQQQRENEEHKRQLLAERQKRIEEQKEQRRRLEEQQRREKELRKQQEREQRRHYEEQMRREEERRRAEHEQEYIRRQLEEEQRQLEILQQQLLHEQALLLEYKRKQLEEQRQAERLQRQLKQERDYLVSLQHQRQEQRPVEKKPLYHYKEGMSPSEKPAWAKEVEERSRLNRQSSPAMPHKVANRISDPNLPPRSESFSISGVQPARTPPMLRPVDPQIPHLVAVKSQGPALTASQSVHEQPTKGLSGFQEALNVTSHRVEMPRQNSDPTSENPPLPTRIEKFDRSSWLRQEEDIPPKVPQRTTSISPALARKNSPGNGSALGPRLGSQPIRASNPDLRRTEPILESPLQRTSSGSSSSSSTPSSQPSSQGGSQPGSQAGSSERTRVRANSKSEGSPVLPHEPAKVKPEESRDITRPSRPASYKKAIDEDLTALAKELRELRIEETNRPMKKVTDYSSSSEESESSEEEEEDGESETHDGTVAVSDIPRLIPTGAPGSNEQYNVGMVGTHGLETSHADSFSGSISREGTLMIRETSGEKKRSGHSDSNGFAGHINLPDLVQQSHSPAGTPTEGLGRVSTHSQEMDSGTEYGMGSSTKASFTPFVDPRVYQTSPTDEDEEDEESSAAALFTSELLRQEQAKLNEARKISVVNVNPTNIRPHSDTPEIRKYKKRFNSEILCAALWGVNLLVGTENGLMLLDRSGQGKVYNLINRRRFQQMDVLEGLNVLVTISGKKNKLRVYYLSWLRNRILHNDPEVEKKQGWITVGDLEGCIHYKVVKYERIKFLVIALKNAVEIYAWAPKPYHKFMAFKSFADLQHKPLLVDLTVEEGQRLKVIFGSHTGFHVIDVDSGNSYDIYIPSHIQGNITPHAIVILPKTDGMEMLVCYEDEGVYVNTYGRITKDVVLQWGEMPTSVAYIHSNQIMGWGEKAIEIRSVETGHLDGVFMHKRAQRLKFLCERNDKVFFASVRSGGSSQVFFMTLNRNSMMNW

Compound: CNc1nc(Nc2ccc(C(=O)N3CCOCC3)cc2OC)nc2[nH]cc(C#N)c12 [Example 1, 2-((2-methoxy-4-(morpholine-4-carbonyl)phenyl)amino)-4-(methylamino)-7H-pyrrolo[2,3-d]pyrimidine-5-carbonitrile]
- remaining binding at 1 µM [1]: 69%
- remaining binding at 1 µM [2]: 95%
- remaining binding at 1 µM [3]: 74%
- remaining binding at 1 µM [4]: 64%
- remaining binding at 1 µM [5]: 82%
- remaining binding at 1 µM [6]: 92%
- remaining binding at 1 µM [7]: 96%

Compound: CC1(Nc2nc(Nc3cnn([C@H]4CCN(C5COC5)C[C@@H]4F)c3Cl)nc3[nH]cc(C#N)c23)CC1 [Example 52, 2-((5-chloro-1-((3S,4S)-3-fluoro-1-(oxetane-3-yl)piperidine-4-yl)-1H-pyrazole-4-yl)amino)((1-methylcyclopropyl)amino)-7H-pyrrolo[2,3-d]pyrimidine-5-carbonitrile]
- remaining binding at 1 µM [1]: 28%
- remaining binding at 1 µM [2]: 3.5%
- remaining binding at 1 µM [3]: 72%
- remaining binding at 1 µM [4]: 7.6%
- remaining binding at 1 µM [5]: 74%
- remaining binding at 1 µM [6]: 46%
- remaining binding at 1 µM [7]: 9%

Compound: CCNc1nc(Nc2ccc(C(=O)N3CCC(N4CCOCC4)CC3)cc2OC)nc2[nH]cc(C(F)(F)F)c12 [Example 104, (4-((4-(ethylamino)-5-(trifluoromethyl)-7H-pyrrolo[2,3-d]pyrimidine-2-yl)amino)-3-methoxyphenyl)(4-morpholinopiperidine-1-yl)methanone]
- remaining binding at 1 µM [1]: 100%
- remaining binding at 1 µM [2]: 83%
- remaining binding at 1 µM [3]: 100%
- remaining binding at 1 µM [4]: 69%
- remaining binding at 1 µM [5]: 100%
- remaining binding at 1 µM [6]: 100%
- remaining binding at 1 µM [7]: 92%
